“And” between values parts separate entries of the source, which are not always exact repeats. Equal entries are not always repeated. ± gives the expanded uncertainty stated by the source.
Conditions: Liquid; for viscosity: Falling or rolling sphere viscometry; for mass density: Vibrating tube method

CCCCn1cc[n+](C)c1.F[B-](F)(F)F [1-butyl-3-methylimidazolium tetrafluoroborate]
Conditions | mass density | viscosity
273.15 K, 100 kPa | 1219.64 ± 1.3 kg/m3 | 543 ± 63 mPa·s and 542.8 ± 63 mPa·s
273.15 K, 101.33 kPa | 1219.5 ± 1.3 kg/m3 and 1219.64 ± 1.3 kg/m3 | 510.8 ± 43 mPa·s and 511 ± 43 mPa·s
278.15 K, 101.33 kPa | 1215.79 ± 1.3 kg/m3 | 353 ± 26 mPa·s and 352.9 ± 26 mPa·s
283.15 K, 100 kPa | 1212.22 ± 1.3 kg/m3 | 263.7 ± 18 mPa·s and 263.8 ± 18 mPa·s
283.15 K, 101.33 kPa | 1212.07 ± 1.3 kg/m3 and 1212.22 ± 1.3 kg/m3 | 250.7 ± 16 mPa·s and 250.6 ± 16 mPa·s
283.15 K, 800 kPa | 1212.53 ± 1.3 kg/m3 | 266.3 ± 18 mPa·s
283.15 K, 11000 kPa | 1217.32 ± 1.4 kg/m3 | 302.2 ± 21 mPa·s
283.15 K, 24900 kPa | 1223.58 ± 1.5 kg/m3 | 359.1 ± 26 mPa·s
283.15 K, 49600 kPa | 1234.03 ± 1.8 kg/m3 | 484.8 ± 40 mPa·s
283.15 K, 75300 kPa | 1244.07 ± 2.1 kg/m3 | 655.9 ± 59 mPa·s
283.15 K, 100600 kPa | 1253.28 ± 2.4 kg/m3 | 875 ± 85 mPa·s
288.15 K, 101.33 kPa | 1208.38 ± 1.3 kg/m3 | 182.4 ± 11 mPa·s
293.15 K, 100 kPa | 1204.98 ± 1.3 kg/m3 | 142.1 ± 7.7 mPa·s and 142 ± 7.7 mPa·s
293.15 K, 101.33 kPa | 1204.83 ± 1.3 kg/m3 and 1204.98 ± 1.3 kg/m3 | 135.6 ± 7.1 mPa·s and 135.7 ± 7.1 mPa·s
298.15 K, 100 kPa | 1201.43 ± 1.3 kg/m3 | 108 ± 5.3 mPa·s and 108.5 ± 5.3 mPa·s and 108.7 ± 5.3 mPa·s
298.15 K, 101.33 kPa | 1201.29 ± 1.3 kg/m3 and 1201.43 ± 1.3 kg/m3 | 103.7 ± 5 mPa·s [middle of 4 runs]
298.15 K, 500 kPa | 1201.61 ± 1.3 kg/m3 | 108.6 ± 5.3 mPa·s
298.15 K, 25900 kPa | 1213.76 ± 1.5 kg/m3 | 142.6 ± 7.6 mPa·s
298.15 K, 50800 kPa | 1224.72 ± 1.8 kg/m3 | 185 ± 11 mPa·s
298.15 K, 75900 kPa | 1234.94 ± 2 kg/m3 | 239.8 ± 15 mPa·s
298.15 K, 101100 kPa | 1244.42 ± 2.3 kg/m3 | 308.3 ± 22 mPa·s
298.15 K, 126200 kPa | 1253.22 ± 2.7 kg/m3 | 393.9 ± 30 mPa·s
298.15 K, 150600 kPa | 1261.21 ± 3 kg/m3 | 499.9 ± 41 mPa·s
298.15 K, 150700 kPa | 1261.23 ± 3 kg/m3 | 500.6 ± 41 mPa·s
298.15 K, 175400 kPa | 1268.78 ± 3.3 kg/m3 | 634.7 ± 56 mPa·s
298.15 K, 200900 kPa | 1276.07 ± 3.7 kg/m3 | 808.3 ± 77 mPa·s
303.15 K, 100 kPa | 1197.88 ± 1.3 kg/m3 | 84.6 ± 3.8 mPa·s
303.15 K, 101.33 kPa | 1197.75 ± 1.3 kg/m3 and 1197.88 ± 1.3 kg/m3 | 80.6 ± 3.6 mPa·s and 80.7 ± 3.6 mPa·s
313.15 K, 100 kPa | 1190.78 ± 1.2 kg/m3 | 53.5 ± 2.3 mPa·s and 53.6 ± 2.3 mPa·s
313.15 K, 101.33 kPa | 1190.68 ± 1.2 kg/m3 | 51.3 ± 2.2 mPa·s
323.15 K, 100 kPa | 1183.79 ± 1.2 kg/m3 | 35.6 ± 1.5 mPa·s
323.15 K, 101.33 kPa | 1183.67 ± 1.2 kg/m3 and 1183.79 ± 1.2 kg/m3 | 34.6 ± 1.5 mPa·s
323.15 K, 140 kPa | 1183.79 ± 1.2 kg/m3 | 36 ± 1.5 mPa·s
323.15 K, 10495 kPa | 1189.26 ± 1.3 kg/m3 | 39.3 ± 1.7 mPa·s
323.15 K, 25446 kPa | 1196.8 ± 1.5 kg/m3 | 44.5 ± 1.9 mPa·s
323.15 K, 50493 kPa | 1208.59 ± 1.7 kg/m3 | 55.5 ± 2.4 mPa·s
323.15 K, 75560 kPa | 1219.46 ± 2 kg/m3 | 68.1 ± 3 mPa·s
323.15 K, 100566 kPa | 1229.48 ± 2.2 kg/m3 | 83.3 ± 3.8 mPa·s
323.15 K, 125543 kPa | 1238.76 ± 2.5 kg/m3 | 101.5 ± 4.9 mPa·s
323.15 K, 150422 kPa | 1247.36 ± 2.9 kg/m3 | 123.2 ± 6.4 mPa·s
323.15 K, 175463 kPa | 1255.42 ± 3.2 kg/m3 | 149.2 ± 8.3 mPa·s
323.15 K, 200347 kPa | 1262.9 ± 3.5 kg/m3 | 180.1 ± 11 mPa·s
323.15 K, 225321 kPa | 1269.94 ± 3.9 kg/m3 | 216.9 ± 13 mPa·s
323.15 K, 250139 kPa | 1276.5 ± 4.3 kg/m3 | 260.9 ± 17 mPa·s
333.15 K, 100 kPa | 1176.81 ± 1.2 kg/m3 | 25.2 ± 1.1 mPa·s and 25.5 ± 1.1 mPa·s
333.15 K, 101.33 kPa | 1176.7 ± 1.2 kg/m3 and 1176.81 ± 1.2 kg/m3 | 24.5 ± 1 mPa·s
343.15 K, 100 kPa | 1169.87 ± 1.2 kg/m3 | 18.4 ± 0.8 mPa·s and 18 ± 0.8 mPa·s
343.15 K, 101.33 kPa | 1169.79 ± 1.2 kg/m3 | 18.1 ± 0.8 mPa·s
348.15 K, 100 kPa | 1166.45 ± 1.2 kg/m3 | 16.2 ± 0.7 mPa·s and 15.9 ± 0.7 mPa·s
348.15 K, 101.33 kPa | 1166.45 ± 1.2 kg/m3 | –
348.15 K, 11700 kPa | 1172.95 ± 1.3 kg/m3 | 17.4 ± 0.7 mPa·s
348.15 K, 25200 kPa | 1180.23 ± 1.4 kg/m3 | 19.4 ± 0.8 mPa·s
348.15 K, 50700 kPa | 1192.94 ± 1.6 kg/m3 | 23.3 ± 1 mPa·s
348.15 K, 75600 kPa | 1204.4 ± 1.9 kg/m3 | 27.8 ± 1.2 mPa·s
348.15 K, 100600 kPa | 1214.97 ± 2.2 kg/m3 | 33 ± 1.4 mPa·s
348.15 K, 125600 kPa | 1224.72 ± 2.5 kg/m3 | 38.8 ± 1.7 mPa·s
348.15 K, 150600 kPa | 1233.78 ± 2.8 kg/m3 | 45.6 ± 2 mPa·s
348.15 K, 175600 kPa | 1242.2 ± 3.1 kg/m3 | 53.4 ± 2.4 mPa·s
348.15 K, 200600 kPa | 1250.04 ± 3.4 kg/m3 | 62.3 ± 2.8 mPa·s
348.15 K, 225500 kPa | 1257.34 ± 3.8 kg/m3 | 72.6 ± 3.4 mPa·s
348.15 K, 250400 kPa | 1264.17 ± 4.1 kg/m3 | 84.6 ± 4.1 mPa·s
348.15 K, 275300 kPa | 1270.59 ± 4.5 kg/m3 | 98.4 ± 4.8 mPa·s
348.15 K, 300000 kPa | 1276.57 ± 4.9 kg/m3 | 114 ± 5.7 mPa·s
353.15 K, 101.33 kPa | 1162.92 ± 1.2 kg/m3 | 13.9 ± 0.6 mPa·s and 13.8 ± 0.6 mPa·s
360.15 K, 101.33 kPa | 1158.27 ± 1.2 kg/m3 | –
362.76 K, 101.33 kPa | 1156.51 ± 1.2 kg/m3 | –
363.15 K, 101.33 kPa | 1156.11 ± 1.2 kg/m3 | –
363.16 K, 101.33 kPa | 1156.22 ± 1.2 kg/m3 | –

Source: the NIST ThermoML archive (doi:10.1021/je700370z)
